# System: red blood cells (RBCs)
# Experiment: flow cytometry of liposomal loading of carboxyfluorescein/trehalose into red blood cells, FIGS. 1A-1E
# Format: cell-based, human
# Conditions: no liposomes (FIG. 1C)
# Procedure: However, it should be noted that the ratio of DPPC to cholesterol can, of course, be varied, as will be appreciated by those of ordinary skill in the art. The liposomes also have an aqueous core that can be composed of, by way of example only, 3.3 mM NaCl, 40 mM KCl, 1.7 mM glucose, 6.7 mM HEPES, 200 mM sucrose or trehalose and 100 μM 5(6)-carboxyfluorescein (CF). As it is known in the art, 5(6)-CF is an impermeable fluorescent marker with a molecular weight similar to that of sucrose and trehalose. This marker can be used to detect the liposome population using flow cytometry and is thus a useful and reliable indicator of loading efficiency. A single uniform population and intense FITC (Fluorescein isothiocyanate) peak verify liposome homogeneity and entrapment of the marker in the aqueous core.
# In order to validate the methods described herein, human red blood cells and TF-1 (CRL2003, ATTC) cells were used as […] model systems. The mechanism of liposomal interaction with the cell is believed to be cell-type dependent and is believed to involve processes of adsorption, fusion and endocytosis.
# FIGS. 1A to 1E are flow cytometry plots used to examine the effects of loading trehalose into red blood cells (RBCs). Liposomes composed of DPPC/cholesterol in the ratio of 70:30 were constructed so as to have a concentration of 0.29M trehalose inside and outside. […]
substance,measurement,value
5(6)-carboxyfluorescein [CF],permeation of free CF into RBCs (fluorescence of RBCs in CF-containing media),cannot cross into RBCs
